# Tests used:
# Hepatotoxicity [1] = test system: Hepatotoxicity;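 on HepSE bilirubinemia: bilirubinemia hepatic side effect score drawn from the DILIps training data, a prediction system for drug-induced liver injury; call rule not given here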;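 on HepSE cholecystitis: Cholecystitis-related hepatic side effect score drawn from the DILIps (drug-induced liver injury prediction) training data set; call rule not given here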;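 on HepSE cholelithiasis: hepatic side effect score for cholelithiasis, drawn from the DILIps training data for predicting drug-induced liver injury; call rule not given here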;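 on HepSE cirrhosis: cirrhosis hepatic side effect score taken from the DILIps (drug-induced liver injury prediction) training set; call rule not given here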;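 on HepSE elevated liver function tests: hepatic side effect score for raised liver function tests, as recorded in the DILIps training set used for predicting drug-induced liver injury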; on HepSE hepatic failure: call rule not given here;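 on HepSE hepatomegaly: hepatic side effect score for hepatomegaly, taken from the training set of the DILIps drug-induced liver injury prediction system; call rule not given here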
# Hepatotoxicity [2] = test system: Hepatotoxicity; remark: listed apart in the source;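 on HepSE bilirubinemia: bilirubinemia hepatic side effect score drawn from the DILIps training data, a prediction system for drug-induced liver injury; call rule not given here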;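 on HepSE cholecystitis: Cholecystitis-related hepatic side effect score drawn from the DILIps (drug-induced liver injury prediction) training data set; call rule not given here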;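 on HepSE cholelithiasis: hepatic side effect score for cholelithiasis, drawn from the DILIps training data for predicting drug-induced liver injury; call rule not given here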;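 on HepSE cirrhosis: cirrhosis hepatic side effect score taken from the DILIps (drug-induced liver injury prediction) training set; call rule not given here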;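 on HepSE elevated liver function tests: hepatic side effect score for raised liver function tests, as recorded in the DILIps training set used for predicting drug-induced liver injury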; on HepSE hepatic failure: call rule not given here;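 on HepSE hepatomegaly: hepatic side effect score for hepatomegaly, taken from the training set of the DILIps drug-induced liver injury prediction system; call rule not given here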
# Hepatotoxicity [3] = test system: Hepatotoxicity; remark: listed apart in the source;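 on HepSE bilirubinemia: bilirubinemia hepatic side effect score drawn from the DILIps training data, a prediction system for drug-induced liver injury; call rule not given here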;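 on HepSE cholecystitis: Cholecystitis-related hepatic side effect score drawn from the DILIps (drug-induced liver injury prediction) training data set; call rule not given here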;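 on HepSE cholelithiasis: hepatic side effect score for cholelithiasis, drawn from the DILIps training data for predicting drug-induced liver injury; call rule not given here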;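 on HepSE cirrhosis: cirrhosis hepatic side effect score taken from the DILIps (drug-induced liver injury prediction) training set; call rule not given here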;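 on HepSE elevated liver function tests: hepatic side effect score for raised liver function tests, as recorded in the DILIps training set used for predicting drug-induced liver injury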; on HepSE hepatic failure: call rule not given here
# Hepatotoxicity [4] = test system: Hepatotoxicity; remark: listed apart in the source;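 on HepSE bilirubinemia: bilirubinemia hepatic side effect score drawn from the DILIps training data, a prediction system for drug-induced liver injury; call rule not given here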;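 on HepSE cholecystitis: Cholecystitis-related hepatic side effect score drawn from the DILIps (drug-induced liver injury prediction) training data set; call rule not given here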;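 on HepSE cholelithiasis: hepatic side effect score for cholelithiasis, drawn from the DILIps training data for predicting drug-induced liver injury; call rule not given here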;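 on HepSE cirrhosis: cirrhosis hepatic side effect score taken from the DILIps (drug-induced liver injury prediction) training set; call rule not given here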;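 on HepSE elevated liver function tests: hepatic side effect score for raised liver function tests, as recorded in the DILIps training set used for predicting drug-induced liver injury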; on HepSE hepatic failure: call rule not given here
# Hepatotoxicity [5] = test system: Hepatotoxicity; remark: listed apart in the source; on HepSE hepatic failure: call rule not given here
# Hepatotoxicity [6] = test system: Hepatotoxicity; remark: listed apart in the source; on HepSE hepatic failure: call rule not given here
# Hepatotoxicity [7] = test system: Hepatotoxicity; remark: listed apart in the source
# Hepatotoxicity [8] = test system: Hepatotoxicity; remark: listed apart in the source
# Hepatotoxicity [9] = test system: Hepatotoxicity; remark: listed apart in the source
# Hepatotoxicity [10] = test system: Hepatotoxicity; remark: listed apart in the source
# Hepatotoxicity [11] = test system: Hepatotoxicity; remark: listed apart in the source
# Hepatotoxicity [12] = test system: Hepatotoxicity; remark: listed apart in the source
# Hepatotoxicity [13] = test system: Hepatotoxicity; remark: listed apart in the source
# Hepatotoxicity [14] = test system: Hepatotoxicity; remark: listed apart in the source
Structure (SMILES),HepSE_bilirubinemia (Hepatotoxicity [1]),HepSE_cholecystitis (Hepatotoxicity [2]),HepSE_cholelithiasis (Hepatotoxicity [3]),HepSE_cirrhosis (Hepatotoxicity [4]),HepSE_elevated liver function tests (Hepatotoxicity [5]),HepSE_hepatic failure (Hepatotoxicity [6]),HepSE_hepatic necrosis (Hepatotoxicity [7]),HepSE_hepatitis (Hepatotoxicity [8]),HepSE_hepatomegaly (Hepatotoxicity [9]),HepSE_jaundice (Hepatotoxicity [10]),HepSE_liver disease (Hepatotoxicity [11]),HepSE_liver fatty (Hepatotoxicity [12]),HepSE_liver function tests abnormal (Hepatotoxicity [13]),HepSE_Combined Scores (Hepatotoxicity [14]),also measured
CC(C)OC(=O)CCC/C=C\C[C@@H]1[C@@H](/C=C/[C@@H](O)COc2cccc(C(F)(F)F)c2)[C@H](O)C[C@@H]1O [TRAVOPROST],0,0,0,0,0,0,0,0,0,0,0,0,0,0,–
O=c1n(CCCN2CCN(c3cccc(Cl)c3)CC2)nc2ccccn12 [TRAZODONE],1,0,0,0,0,0,0,0,0,1,0,0,0,2,–
CCCCC[C@H](O)CC[C@@H]1[C@H]2Cc3cccc(OCC(=O)O)c3C[C@H]2C[C@H]1O [TREPROSTINIL],0,0,0,0,0,0,0,0,0,0,0,0,0,0,–
CC1=C(/C=C/C(C)=C/C=C/C(C)=C/C(=O)O)C(C)(C)CCC1 [TRETINOIN],0,0,0,0,0,0,0,1,0,0,1,0,0,2,–
C[C@]12C=CC(=O)C=C1CC[C@H]1[C@@H]3C[C@@H](O)[C@](O)(C(=O)CO)[C@@]3(C)C[C@H](O)[C@@]12F [TRIAMCINOLONE],0,0,0,0,0,0,0,0,1,0,0,0,0,1,–
Cc1nnc2n1-c1ccc(Cl)cc1C(c1ccccc1Cl)=NC2 [TRIAZOLAM],0,0,0,0,0,1,0,0,0,1,0,0,0,2,–
CN1CCN(CCCN2c3ccccc3Sc3ccc(C(F)(F)F)cc32)CC1 [TRIFLUOPERAZINE],0,0,0,0,0,0,0,0,0,1,0,0,0,1,–
O=c1[nH]c(=O)n([C@H]2C[C@H](O)[C@@H](CO)O2)cc1C(F)(F)F [TRIFLURIDINE],0,0,0,0,0,0,0,0,0,0,0,0,0,0,–
OC(CCN1CCCCC1)(c1ccccc1)C1CCCCC1 (stereo not drawn) [TRIHEXYPHENIDYL],–,–,–,–,–,–,–,–,–,–,–,–,–,–,HepSE_bilirubinemia (Hepatotoxicity [1]; Liver): 0; HepSE_cholecystitis (Hepatotoxicity [2]; Liver): 0; HepSE_cholelithiasis (Hepatotoxicity [3]; Liver): 0; HepSE_cirrhosis (Hepatotoxicity [4]; Liver): 0; HepSE_elevated liver function tests (Hepatotoxicity [5]; Liver): 0; HepSE_hepatic failure (Hepatotoxicity [6]; Liver): 0; HepSE_hepatic necrosis (Hepatotoxicity [7]; Liver): 0; HepSE_hepatitis (Hepatotoxicity [8]; Liver): 0; HepSE_hepatomegaly (Hepatotoxicity [9]; Liver): 0; HepSE_jaundice (Hepatotoxicity [10]; Liver): 0; HepSE_liver disease (Hepatotoxicity [11]; Liver): 0; HepSE_liver fatty (Hepatotoxicity [12]; Liver): 0; HepSE_liver function tests abnormal (Hepatotoxicity [13]; Liver): 0; HepSE_Combined Scores (Hepatotoxicity [14]; Liver): 0
COc1cc(Cc2cnc(N)nc2N)cc(OC)c1OC [TRIMETHOPRIM],–,–,–,–,–,–,–,–,–,–,–,–,–,–,HepSE_bilirubinemia (Hepatotoxicity [1]; Liver): 0; HepSE_cholecystitis (Hepatotoxicity [2]; Liver): 0; HepSE_cholelithiasis (Hepatotoxicity [3]; Liver): 0; HepSE_cirrhosis (Hepatotoxicity [4]; Liver): 0; HepSE_elevated liver function tests (Hepatotoxicity [5]; Liver): 0; HepSE_hepatic failure (Hepatotoxicity [6]; Liver): 0; HepSE_hepatic necrosis (Hepatotoxicity [7]; Liver): 0; HepSE_hepatitis (Hepatotoxicity [8]; Liver): 0; HepSE_hepatomegaly (Hepatotoxicity [9]; Liver): 0; HepSE_jaundice (Hepatotoxicity [10]; Liver): 1; HepSE_liver disease (Hepatotoxicity [11]; Liver): 0; HepSE_liver fatty (Hepatotoxicity [12]; Liver): 0; HepSE_liver function tests abnormal (Hepatotoxicity [13]; Liver): 0; HepSE_Combined Scores (Hepatotoxicity [14]; Liver): 1
COc1cc(NCc2ccc3nc(N)nc(N)c3c2C)cc(OC)c1OC [TRIMETREXATE],0,0,0,0,0,0,0,0,0,0,0,0,0,0,–
CC(CN(C)C)CN1c2ccccc2CCc2ccccc21 (stereo not drawn) [TRIMIPRAMINE],0,0,0,0,0,0,0,0,0,1,0,0,0,1,–
Cc1c(C)c2c(c(C)c1O)CCC(C)(COc1ccc(CC3SC(=O)NC3=O)cc1)O2 (stereo not drawn) [TROGLITAZONE],0,0,0,0,0,0,0,1,0,1,0,0,1,3,–
NC(CO)(CO)CO [TROMETHAMINE],–,–,–,–,–,–,–,–,–,–,–,–,–,–,HepSE_bilirubinemia (Hepatotoxicity [1]; Liver): 0; HepSE_cholecystitis (Hepatotoxicity [2]; Liver): 0; HepSE_cholelithiasis (Hepatotoxicity [3]; Liver): 0; HepSE_cirrhosis (Hepatotoxicity [4]; Liver): 0; HepSE_elevated liver function tests (Hepatotoxicity [5]; Liver): 0; HepSE_hepatic failure (Hepatotoxicity [6]; Liver): 0; HepSE_hepatic necrosis (Hepatotoxicity [7]; Liver): 0; HepSE_hepatitis (Hepatotoxicity [8]; Liver): 0; HepSE_hepatomegaly (Hepatotoxicity [9]; Liver): 0; HepSE_jaundice (Hepatotoxicity [10]; Liver): 0; HepSE_liver disease (Hepatotoxicity [11]; Liver): 0; HepSE_liver fatty (Hepatotoxicity [12]; Liver): 0; HepSE_liver function tests abnormal (Hepatotoxicity [13]; Liver): 0; HepSE_Combined Scores (Hepatotoxicity [14]; Liver): 0
CCN(Cc1ccncc1)C(=O)C(CO)c1ccccc1 (stereo not drawn) [TROPICAMIDE],0,0,0,0,–,0,0,0,0,0,0,0,–,0,HepSE_elevated liver function tests (Hepatotoxicity [5]; Liver): 0; HepSE_liver function tests abnormal (Hepatotoxicity [13]; Liver): 0
O=C(O[C@H]1C[C@H]2CC[C@@H](C1)[N+]21CCCC1)C(O)(c1ccccc1)c1ccccc1.[Cl-] [TROSPIUM CHLORIDE],0,0,0,0,0,0,0,0,0,0,0,0,0,0,–
N[C@@H]1[C@H]2CN(c3nc4c(cc3F)c(=O)c(C(=O)O)cn4-c3ccc(F)cc3F)C[C@@H]12 [TROVAFLOXACIN],1,0,0,0,0,1,1,1,0,1,0,0,0,5,–
